Assay results as given in US20240174618A1, “SUBSTITUTED (2-HETEROARYLOXYPHENYL)SULFONATES, SALTS THEREOF AND THEIR USE AS HERBICIDAL AGENTS” (Bayer Aktiengesellschaft, priority 2021, published 2024).

Legend:
Assay type in all cases: in vivo
Veronica persica (VERPE) = assay: C. Herbicidal pre-emergence efficacy, VERPE; conditions: scored after about 3 weeks
Procedure, shortened: (§1)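 Pre-emergence test: formulated compounds sprayed as aqueous suspension or emulsion with 0.5% additive at 600 l/ha onto soil covering sown seeds, at rates corresponding to 320 g/ha or less. After about 3 weeks in greenhouse, efficacy scored visually as percent versus untreated controls (100% = plants dead).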

Setaria viridis (SETVI) = assay: E. Herbicidal post-emergence efficacy, SETVI
Procedure, shortened: (§2)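 Visual scoring against untreated plants was done roughly 3 weeks after spraying (0% = no effect, 100% = plants dead). Spray application at 320 g/ha or lower, 600 l/ha water with 0.5% additive, was made onto green parts of one-leaf-stage greenhouse plants grown 2-3 weeks in sandy loam.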

Kochia scoparia (KCHSC) = assay: C. Herbicidal pre-emergence efficacy, KCHSC
Procedure, shortened: as §1

[1] = system: Digitaria sanguinalis (DIGSA); assay: B. Herbicidal post-emergence efficacy, DIGSA; conditions: rated visually after about 3 weeks
Procedure, shortened: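 Post-emergence greenhouse test: one-leaf-stage plants, compound (WP/EC, +0.5% additive, 600 L/ha water, ≤1280 g/ha) applied to green parts; % efficacy scored visually vs untreated after ~3 wk; 100% = plants died.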

Viola tricolor (VIOTR) = assay: E. Herbicidal post-emergence efficacy, VIOTR
Procedure, shortened: as §2

Poa annua (POAAN) = assay: A. Herbicidal pre-emergence efficacy, POAAN
Procedure, shortened: (§3)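 Applied before emergence onto covering soil at rates of 1280 g/ha or less, using 600 L/ha spray water with 0.5% additive. Scoring: visual % efficacy after ~3 weeks, greenhouse.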

Stellaria media (STEME) = assay: A. Herbicidal pre-emergence efficacy, STEME
Procedure, shortened: as §3

[2] = system: Abutilon theophrasti (ABUTH); assay: E. Herbicidal post-emergence efficacy, ABUTH
Procedure, shortened: as §2

[3] = system: Echinochloa crus-galli (ECHCG); assay: E. Herbicidal post-emergence efficacy, ECHCG
Procedure, shortened: as §2

Structure (SMILES)	Pre-emergence efficacy against VERPE (Veronica persica (VERPE); 80 g/ha) [%]	Pre-emergence efficacy against VERPE (Veronica persica (VERPE); 320 g/ha) [%]	Post-emergence efficacy against SETVI in % (Setaria viridis (SETVI); application rate 80 g/ha) [%]	Post-emergence efficacy against SETVI in % (Setaria viridis (SETVI); application rate 320 g/ha) [%]	Pre-emergence efficacy against KCHSC in % (Kochia scoparia (KCHSC); application rate 80 g/ha) [%]	Pre-emergence efficacy against KCHSC in % (Kochia scoparia (KCHSC); application rate 320 g/ha) [%]	Post-emergence efficacy against DIGSA in % ([1]; 320 g/ha) [%]	Post-emergence efficacy against DIGSA in % ([1]; 1280 g/ha) [%]	Post-emergence efficacy against VIOTR in % (Viola tricolor (VIOTR); application rate 80 g/ha) [%]	Post-emergence efficacy against VIOTR in % (Viola tricolor (VIOTR); application rate 320 g/ha) [%]	Pre-emergence efficacy against POAAN (Poa annua (POAAN); dosage 320 g/ha) [%]	Pre-emergence efficacy against POAAN (Poa annua (POAAN); dosage 1280 g/ha) [%]	Pre-emergence efficacy against STEME (Stellaria media (STEME); dosage 320 g/ha) [%]	Pre-emergence efficacy against STEME (Stellaria media (STEME); dosage 1280 g/ha) [%]	Post-emergence efficacy against ABUTH in % ([2]; application rate 80 g/ha) [%]	Post-emergence efficacy against ABUTH in % ([2]; application rate 320 g/ha) [%]	Post-emergence efficacy against ECHCG in % ([3]; application rate 320 g/ha) [%]	Post-emergence efficacy against ECHCG in % ([3]; application rate 80 g/ha) [%]	Pre-emergence efficacy against STEME (Stellaria media (STEME); dosage 80 g/ha) [%]	Pre-emergence efficacy against POAAN (Poa annua (POAAN); dosage 80 g/ha) [%]
O=S(=O)(CCC(F)(F)F)Oc1c(Cl)cccc1Oc1ncc(Br)cn1 [Example I-32]	80	100	80	100	100	100	90	100	100	100	90	90	90	90	80	80	90			
O=S(=O)(CCC1CC1)Oc1c(F)cccc1Oc1ncc(Cl)cn1 [Example I-55]		100	80	90	80	100	90	90		80	90	100	100	100		100	100	90		
O=S(=O)(CCC(F)(F)F)Oc1c(Cl)cccc1Oc1ncc(Cl)cn1 [Example I-38]	100	100	100	100	100	100		90	100	100	100	100	100	100		100	100		100	
O=S(=O)(CCCC(F)(F)F)Oc1c(F)cccc1Oc1ncc(Br)cn1 [Example I-41]	100	100	100	100	100	100	90	90	100	100	100	100	100	100	90	100	100	90	100	100
O=S(=O)(CCC(F)(F)F)Oc1c(F)cccc1Oc1ncc(Br)cn1 [Example I-40]	100	100	100	100	100	100	90	90	100	100	100	100	100	100	90	100	100	100		100
O=S(=O)(CCCC(F)(F)C(F)(F)F)Oc1c(F)cccc1Oc1ncc(Cl)cn1 [Example I-68]	90	90	100	100	100	100	90	100	100	100	90	100	100	100		90	90			
O=S(=O)(CC1CC(F)(F)C1)Oc1c(F)cccc1Oc1ncc(Cl)cn1 [Example I-53]	100	100	100	100	100	100	90	90	100	100	100	100	100	100	100	100	100	100	100	100
O=S(=O)(CCCC(F)(F)F)Oc1c(Cl)cccc1Oc1ncc(Cl)cn1 [Example I-39]	100	100	100	100	100	100		90	100	100	100	100	100	100	80	100	100	90		
O=S(=O)(CCCC(F)(F)F)Oc1c(F)cccc1Oc1ncc(Cl)cn1 [Example I-49]			100	100	100	100	90	90	100	100	100	100	100	100	80	80	100	100	100	90
O=S(=O)(CCC(F)(F)F)Oc1c(F)cccc1Oc1ncc(Cl)cn1 [Example I-48]			100	100	100	100	90	90	100	100	100	100	100	100	90	100	100	100	90	90
